Data: ChEMBL document CHEMBL1201862, “PubChem BioAssay data set” (2004)
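Cells were grown in 96-well plates and exposed to each compound for 48 hours at five concentrations; endpoints were interpolated linearly between bracketing concentrations, or set to the highest concentration if not reached. GI50 is the concentration that inhibits growth by half.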 The source made the active and inactive calls. Rule as the data show it: active = GI50 up to about 1.1 µM and inactive = higher.

Tests used:
Test in all cases: inhibition of tumour cell growth, NCI panel, 48 h
HCT-116 = test system: HCT-116
SK-MEL-2 = test system: SK-MEL-2
MCF7 = test system: MCF7
UO-31 = test system: UO-31
HCT-15 = test system: HCT-15
NCI-H460 = test system: NCI-H460
NCI-H226 = test system: NCI-H226
MDA-MB-231 = test system: MDA-MB-231
RPMI-8226 = test system: RPMI-8226
UACC-62 = test system: UACC-62
KM12 = test system: KM12
CCRF-CEM = test system: CCRF-CEM
SN12C = test system: SN12C
SF-295 = test system: SF-295
EKVX = test system: EKVX
T47D = test system: T47D
UACC-257 = test system: UACC-257
IGROV-1 = test system: IGROV-1
A549 = test system: A549
SNB-19 = test system: SNB-19
Malme-3M = test system: Malme-3M
ACHN = test system: ACHN
SNB-75 = test system: SNB-75
CAKI-1 = test system: CAKI-1
SK-OV-3 = test system: SK-OV-3
COLO 205 = test system: COLO 205
NCI/ADR-RES = test system: NCI/ADR-RES
HOP-62 = test system: HOP-62
OVCAR-8 = test system: OVCAR-8
DU-145 = test system: DU-145
SK-MEL-5 = test system: SK-MEL-5
TK-10 = test system: TK-10
M14 = test system: M14
NCI-H522 = test system: NCI-H522
U-251 = test system: U-251
HOP-92 = test system: HOP-92
HCC 2998 = test system: HCC 2998
SW-620 = test system: SW-620
A498 = test system: A498
OVCAR-3 = test system: OVCAR-3
LOX IMVI = test system: LOX IMVI
MDA-MB-435 = test system: MDA-MB-435
SF-539 = test system: SF-539
K562 = test system: K562
Hs-578T = test system: Hs-578T
NCI-H23 = test system: NCI-H23
786-0 = test system: 786-0
MDA-N = test system: MDA-N
OVCAR-4 = test system: OVCAR-4
BT-549 = test system: BT-549
SF-268 = test system: SF-268
SK-MEL-28 = test system: SK-MEL-28
PC-3 = test system: PC-3
OVCAR-5 = test system: OVCAR-5

Compound: CCC(C)C(=O)OC1C(=O)OC2CC3C(C)=CC(=O)C(O)C3(C)C3C4(O)OCC23C1C(C)C4O (centres undefined)
- GI50 (HCT-116): < 10 nM (active)
- GI50 (SK-MEL-2): < 29.2 nM (active)
- GI50 (MCF7): < 10 nM (active)
- GI50 (UO-31): 32.4 nM (active)
- GI50 (HCT-15): < 18.5 nM
- GI50 (NCI-H460): < 14 nM (active)
- GI50 (NCI-H226): < 16 nM (active)
- GI50 (MDA-MB-231): 32 nM (active)
- GI50 (RPMI-8226): < 11.1 nM (active)
- GI50 (UACC-62): < 18.4 nM (active)
- GI50 (KM12): < 10.7 nM (active)
- GI50 (CCRF-CEM): < 13.1 nM (active)
- GI50 (SN12C): 63.2 nM (active)
- GI50 (SF-295): < 20.4 nM (active)
- GI50 (EKVX): 264 nM (active)
- GI50 (T47D): < 16.6 nM (active)
- GI50 (UACC-257): 22.3 nM (active)
- GI50 (IGROV-1): < 10 nM (active)
- GI50 (A549): 155 nM (active)
- GI50 (SNB-19): < 15.2 nM (active)
- GI50 (Malme-3M): < 10.4 nM (active)
- GI50 (ACHN): < 17.1 nM (active)
- GI50 (SNB-75): < 20.4 nM (active)
- GI50 (CAKI-1): 115 nM (active)
- GI50 (SK-OV-3): 392 nM (active)
- GI50 (COLO 205): 205 nM (active)
- GI50 (NCI/ADR-RES): 347 nM (active)
- GI50 (HOP-62): < 19 nM (active)
- GI50 (OVCAR-8): < 10 nM (active)
- GI50 (DU-145): < 19 nM (active)
- GI50 (SK-MEL-5): < 10.8 nM (active)
- GI50 (TK-10): < 18.8 nM (active)
- GI50 (M14): < 14.6 nM (active)
- GI50 (NCI-H522): < 10.5 nM (active)
- GI50 (U-251): < 10.7 nM (active)
- GI50 (HOP-92): 20.8 nM (active)
- GI50 (HCC 2998): < 26.2 nM (active)
- GI50 (SW-620): 13.6 nM (active)
- GI50 (A498): 514 nM (active)
- GI50 (OVCAR-3): < 19.9 nM (active)
- GI50 (LOX IMVI): < 10 nM (active)
- GI50 (MDA-MB-435): < 12.4 nM (active)
- GI50 (SF-539): < 10 nM (active)
- GI50 (K562): < 10 nM (active)
- GI50 (Hs-578T): < 20.2 nM (active)
- GI50 (NCI-H23): < 14.4 nM (active)
- GI50 (786-0): < 16.6 nM (active)
- GI50 (MDA-N): < 16.9 nM (active)
- GI50 (OVCAR-4): 31.4 nM (active)
- GI50 (BT-549): < 17 nM (active)
- GI50 (SF-268): < 18.8 nM (active)
- GI50 (SK-MEL-28): < 16.4 nM (active)
- GI50 (PC-3): < 19.9 nM (active)
- GI50 (OVCAR-5): 77.6 nM (active)
